Assay results published in ChEMBL document CHEMBL1155573, “Aristolactams and dioxoaporphines from Fissistigma balansae and Fissistigma oldhamii” (2000).

What was measured:
Assay type in all cases: functional
Settings in all cases: Oryctolagus cuniculus
Platelet [1] = experiment: Inhibition of arachidonic acid-induced rabbit platelet aggregation at 100 ug/ml
Platelet [2] = experiment: Inhibition of collagen-induced rabbit platelet aggregation at 20 ug/ml
Platelet [3] = experiment: Inhibition of arachidonic acid-induced rabbit platelet aggregation at 10 ug/ml
Platelet [4] = experiment: Inhibition of arachidonic acid-induced rabbit platelet aggregation at 20 ug/ml
Platelet [5] = experiment: Inhibition of collagen-induced rabbit platelet aggregation at 50 ug/ml
Platelet [6] = experiment: Inhibition of collagen-induced rabbit platelet aggregation at 10 ug/ml
Platelet [7] = experiment: Inhibition of platelet-activating factor-induced rabbit platelet aggregation at 100 ug/ml
Platelet [8] = experiment: Inhibition of collagen-induced rabbit platelet aggregation at 100 ug/ml
Platelet [9] = experiment: Inhibition of thrombin-induced rabbit platelet aggregation at 100 ug/ml
Platelet [10] = experiment: Inhibition of arachidonic acid-induced rabbit platelet aggregation at 50 ug/ml

Compound	inhibition at 100 µg/mL (Platelet [1])	inhibition at 20 µg/mL (Platelet [2])	inhibition at 10 µg/mL (Platelet [3])	inhibition at 20 µg/mL (Platelet [4])	inhibition at 50 µg/mL (Platelet [5])	inhibition at 10 µg/mL (Platelet [6])	inhibition at 100 µg/mL (Platelet [7])	inhibition at 100 µg/mL (Platelet [8])	inhibition at 100 µg/mL (Platelet [9])	inhibition at 50 µg/mL (Platelet [10])
COc1cccc2c1c(OC)c1c3c(cc(O)c(OC)c32)C(=O)N1 [ENTEROCARPAM I]	2.2%	72.9%	83.5%	46.4%	25.8%	83.7%	70.8%	43%	86.5%	13.5%
COc1c(O)cc2c3c(cc4ccc(O)cc4c13)NC2=O [ARISTOLACTAM AIIIA]	56.9%						80.7%	39.6%	90.6%	
COc1c(O)c(OC)c2c3c(cc4ccccc42)NC(=O)c13 [ARISTOLACTAM F II]	8.5%	81.7%	85.4%	52.5%	14.5%	81.7%	6.7%	9.7%	83.9%	16.5%
COc1ccc2cc3c4c(cc(OC)c(OC)c4c2c1)C(=O)N3 [ARISTOLACTAM BIII]	71.9%				59.1%		60.6%	0%	89.3%	86.6%
COc1cc2c3c(cc4ccc(O)cc4c3c1OC)NC2=O [GONIOTHALACTAM]	13.6%	75.9%	85.9%	81.6%	17.3%	83%	67.3%	10.5%	89.8%	50.4%
COc1c(O)cc2c3c(cc4ccccc4c13)NC2=O [ARISTOLACTAM AII]	86.3%						78.3%	82.5%	90%	
COc1cc2c3c(cc4ccccc4c3c1O)NC2=O [PIPEROLACTAM A]	0%	84.2%		83.5%	22.2%		84.1%	0%	84.3%	14.7%
COc1c(OC)c(OC)c2c3c(cc4ccccc42)NC(=O)c13 [PIPEROLACTAM C]	7.8%				82%		6.1%	0%	83.7%	89.4%
COc1c(OC)c(OC)c2c3c(cc4ccc(O)cc42)NC(=O)c13 [STIGMALACTAM]	14.2%	72.9%		46.4%	30.8%		70.8%	10.1%	91.9%	18.8%
COc1c(O)cc2c3c(cc4ccccc4c13)NC(=O)C2=O [NORARISTOLODIONE]	65.8%	84.7%			72%		82.5%	40.6%	88.7%	
CC(=O)Oc1ccccc1C(=O)O [ASPIRIN]	0%						90.4%	87.8%		
COc1cc2c3c(cc4c(O)cccc4c3c1OC)NC2=O [VELUTINAM]	37.5%				65.4%		87.3%	18.4%	92.1%	77.5%
